A short description of series [1]: Cmax in ICR mouse at 50 mg/kg, po. Also on record: dose 50 mg/kg, route oral. Type of series: ADME, organism-based. Particulars: in vivo.
The target of series [2] is T1, Peroxisome proliferator-activated receptor gamma (Homo sapiens) (UniProt P37231).
T1 sequence (whole entry): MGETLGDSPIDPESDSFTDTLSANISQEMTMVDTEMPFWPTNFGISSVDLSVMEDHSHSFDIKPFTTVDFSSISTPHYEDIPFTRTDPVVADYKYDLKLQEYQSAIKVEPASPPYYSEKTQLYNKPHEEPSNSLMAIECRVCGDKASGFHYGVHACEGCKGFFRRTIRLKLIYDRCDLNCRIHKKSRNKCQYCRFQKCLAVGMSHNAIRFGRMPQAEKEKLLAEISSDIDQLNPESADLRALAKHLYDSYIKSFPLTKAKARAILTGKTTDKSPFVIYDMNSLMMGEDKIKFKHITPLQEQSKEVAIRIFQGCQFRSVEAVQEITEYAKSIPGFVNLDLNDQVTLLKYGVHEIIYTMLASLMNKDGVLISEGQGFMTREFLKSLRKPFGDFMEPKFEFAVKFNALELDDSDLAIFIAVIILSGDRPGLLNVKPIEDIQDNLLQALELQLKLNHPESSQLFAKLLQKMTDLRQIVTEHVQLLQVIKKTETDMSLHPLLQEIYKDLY
The series can be described thus: Activation of PPAR-gamma (unknown origin) transfected in human U2OS cells assessed as increase in transcriptional activity at 10^-6 M after 24 hrs by luciferase reporter gene assay relative to rosiglitazone. Type of series: cell-based. A general note: Reporter assays use an easily measured gene product as a stand-in for the process of interest.

Series [3] can be described thus: Tmax in ICR mouse at 50 mg/kg, po. Type of series: ADME, organism-based. Details: dose 50 mg/kg, route oral. Particulars: in vivo.
The subject of series [4] is Mus musculus. Description: Hypoglycemic activity in ICR mouse assessed as reduction of blood glucose AUC (0 to 120 mins) at 50 mg/kg, po qd administered for 3 days followed by glucose challenge for 40 mins on day 3 post last dose by OGTT relative to control. Type of series: functional. Details: scale not given: the % may be the effect or the level left.
Series [5] concerns Mus musculus. The series can be described thus: Hypoglycemic activity in ICR mouse assessed as decrease in blood glucose level at 50 mg/kg, po after 4 hrs by OGTT relative to control. Type of series: functional.
The nature of series [6]: AUC (0 to t) in ICR mouse at 50 mg/kg, po. Type of series: ADME, organism-based. Details: dose 50 mg/kg, route oral. Particulars: plasma.
Series [7] deals with Mus musculus. The series can be described thus: Hypoglycemic activity in ICR mouse assessed as decrease in blood glucose level at 50 mg/kg, po after 2 hrs by OGTT relative to control. Type of series: functional.
Series [8] is described as follows: MRT (0 to t) in ICR mouse at 50 mg/kg, po. Type of series: ADME, organism-based. Details: dose 50 mg/kg, route oral. Particulars: in vivo.
The target of series [9] is T1, Peroxisome proliferator-activated receptor gamma (Homo sapiens). The series can be described thus: Activation of PPAR-gamma (unknown origin) transfected in human U2OS cells assessed as increase in transcriptional activity at 10^-6 M after 24 hrs by luciferase reporter gene assay. Type of series: cell-based.
The species named for series [10] is Homo sapiens. Description: Selectivity for PPAR-gamma (unknown origin) over PPAR-alpha (unknown origin).
The subject of series [11] is Mus musculus. The series can be described thus: Hypoglycemic activity in ICR mouse assessed as decrease in blood glucose level at 50 mg/kg, po after 6 hrs by OGTT relative to control. Type of series: functional. Also on record: scale not given: the % may be the effect or the level left.

Each structure is given as a SMILES string. The source made the active and inactive calls. The calls are words filed in the database; no cut-off is given here.

As to `CCCCCN(C(=O)Nc1nccs1)c1ccc(OC(C)(C)C(=O)O)cc1`, in [1], the Cmax (in general, the maximum level reached in the sampled fluid or tissue) was found to be 77.8 µg/mL. The Activity in series [2] is more than 38.8%; in series [4], 34.6%. Further, in [3], the Tmax (in general, the time at which the peak concentration occurs) was 30 min. The result in [5] and in series [7] was Active. Also, the AUC(0-t) – broadly, exposure summed from dosing to a finite time, without extrapolation to infinity – in series [6] is 98 µg·h/mL. In addition, the MRT last (as a rule, a mean duration of stay, worked out from the concentration-time curve) in series [8] came out at 67.8 min.

Consider `CCCCCN(C(=O)Nc1nccs1)c1ccc(OC(C)(C)C(=O)OCC)cc1`, for which the Activity in series [2] was more than 38.8%; in series [4], 10%.

Turning to `CCCN(C(=O)Nc1nc2ccc(C)cc2s1)c1ccc(OC(C)(C)C(=O)O)cc1`, the outcome in series [9] was Active.

As for `CC(C)(Oc1ccc(CCN(CC2CCCCC2)C(=O)Nc2ccc(F)cc2F)cc1)C(=O)O`, in [10], the Selectivity ratio came to 10.

`CC(C)CCN(C(=O)Nc1nc2ccccc2s1)c1ccc(OC(C)(C)C(=O)O)cc1`: the result in [9] was Active.

Consider `CCCCCN(C(=O)Nc1nc2ccc(C)cc2s1)c1ccc(OC(C)(C)C(=O)O)cc1`, for which the Activity in series [2] was more than 38.8%; in series [5], 22.6%; in [11], 20%.

`C=CCN(C(=O)Nc1nccs1)c1ccc(OC(C)(C)C(=O)OCC)cc1`: the Activity in series [2] is more than 38.8%.

As to `CCOC(=O)C(C)(C)Oc1ccc(N(Cc2ccco2)C(=O)Nc2nccs2)cc1`, in series [9], the result was Active.

For the compound `CC(C)(Oc1ccc(N(Cc2cccc(F)c2)C(=O)Nc2nc3ccccc3s2)cc1)C(=O)O`, the outcome in series [9] was Active.

`CCOC(=O)C(C)(C)Oc1ccc(N(CC=C(C)C)C(=O)Nc2nccs2)cc1`: the result in series [9] was Active.

In the case of `CC(C)Oc1cc(OCCc2ccsc2)cc(C(=O)Nc2ccc(C(=O)O)cn2)c1`, the Activity in series [5] is 41.8%; in series [7], 29.7%; in series [11], 24.4%.

Consider `CC(C)(Oc1ccc(N(CC2CCCCC2)C(=O)Nc2nc3ccccc3s2)cc1)C(=O)O`, for which the Activity in series [2] is more than 38.8%.

For the origin of these results see ChEMBL document CHEMBL3124776, “Discovery of novel urea derivatives as dual-target hypoglycemic agents that activate glucokinase and PPARγ” (Eur J Med Chem, 2014).
